{"source": "patent US6358921B1", "about": "“Antimicrobial peptide compositions and method” (priority 1996, dated 2002)", "key": {"[1]": {"experiment": "Displacement of dansyl-polymyxin from LPS", "type": "binding, P. aeruginosa", "details": "read-out: LPS binding affinity: peptide concentration to displace 50% of dansyl-polymyxin B from LPS; Tables 1, 4, 7", "procedure,_shortened": "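Peptides titrated into 3 μg/mL P. aeruginosa LPS with 2.5 μM dansyl-polymyxin (~90% site saturation) in 5 mM sodium HEPES, pH 7.0; fluorescence decrease recorded. I50 (50% probe displacement) taken from the x-intercept of a double-reciprocal plot of percent inhibition versus inhibitor concentration.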"}, "[2]": {"test_system": "P. aeruginosa H188", "type": "cell-based, Pseudomonas aeruginosa", "procedure,_shortened": "(§1)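 Antimicrobial activity is measured by a liquid-broth assay in LB at 37 °C overnight, starting from 5×10^5 CFU/mL. Values are minimal inhibitory concentrations, i.e. the lowest concentration that stops growth.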"}, "[3]": {"test_system": "B. subtilis", "type": "cell-based, Bacillus subtilis", "procedure,_shortened": "as §1"}, "[4]": {"test_system": "E. coli SC9251", "experiment": "MIC, liquid-broth microtitre dilution", "type": "cell-based, Escherichia coli", "details": "unit from Table 10", "from_the_text": "(§2) The following bacterial strains were utilized: Escherichia coli UB1005 (wt) and its antibiotic supersusceptible derivative DC2 (Clark, 1984); Excherichia coli SC9251 and its polymixin B rasistant mutant pmrA SC9252 (Peterson, et al., 1987) Pseudomonas aeruginosa H187 (wt) (Angus, et al., 1987) and its antibiotic-sensitive derivative H188 (Zimmerman, W, Antimicrob. Agents Chemother. 18: 94-100, 1980); methicillin sensitive Staphylococcus aureus K147 (Kreiswirth, et al., 1983); Staphylococcus aureus SAP0017, a methicillin resistant clinical isolate from Dr. A. Chow (University of British Columia); Bacillus subtilis, an environmental wt lab strain. Enterococcus faecalis are ATCC 29212 cells and Staphylococcus epidermidis was a clinical isolate from Dr. D. Speert (University of British Columbia). Antifungal activity was tested using a clinical lab isolate of Candida albicans. Salmonella typhinurium C57 and C610 (Fields, P.I., et al., Science 243: 1059-1062 (1989) Corynebacterium xerosis was an environmental isolate (University of British Columbia).\n(§3) It is now apparent that agar-based assays severely underestimate antifungal activity as well as activity against gram negative microorganisms (Kondejewski, et al., 1996). Consequently, in the studies reported herein, a liquid-broth method was used to measure the antibiotic properties of the peptides. […] Briefly, cells were grown overnight at 37° C. in LB and diluted in the same medium. Serial dilutions of antibiotics were added to the microtitre plates in a volume of 100 μL followed by 10 μL of bacteria to give a final inoculum of 5×10^5 CFU/mL. Plates were incubated at 37° C. overnight and MICs determined as the lowest antibiotic concentration that inhibited growth."}, "[5]": {"test_system": "E. coli SC9252", "experiment": "MIC, liquid-broth microtitre dilution", "type": "cell-based, Escherichia coli", "details": "unit from Table 10", "from_the_text": "as §2, §3"}, "[6]": {"test_system": "E. coli DC2", "type": "cell-based, Escherichia coli", "procedure,_shortened": "(§4)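 Liquid-broth microdilution: overnight LB cultures at 37 °C, diluted to a final inoculum of 5×10^5 CFU/mL with serial peptide dilutions, incubated overnight at 37 °C. MIC (μg/ml) is the lowest concentration that inhibited growth. Therapeutic index is the concentration giving complete hemolysis at 4 h divided by the MIC.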"}, "[7]": {"test_system": "E. coli UB1005", "type": "cell-based, Escherichia coli", "procedure,_shortened": "as §1"}, "[8]": {"test_system": "gram positive microorganisms", "type": "cell-based", "from_the_text": "as §2, §3\nThe results from antimicrobial and hemolytic assays are combined to provide a “Therapeutic Index” (TI) for each peptide with respect to individual microorganisms. As reported herein, the TI is calculated as the hemolytic activity divided by the antimicrobial activity. The TI thus is a measure of specificity of the particular peptide for microbial membranes as opposed to human blood cell membranes. In the present studies, antimicrobial activities are reported as minimum inhibitory concentrations (MIC)—the lowest concentration of peptide (μg/ml) found to inhibit growth of the particular microbe. Hemolytic activity is reported as the concentration of peptide that effected complete lysis of blood cells after four hours. Thus, in the context of the present invention high TI values indicate microbial specificity and relative lack of toxicity."}, "[9]": {"test_system": "Acholeplasma laidlawii", "type": "cell-based", "from_the_text": "According to another feature of the invention, GS14, which is apparently an unlikely antibacterial agent, is useful against mycoplasma infection. […] One use of such a compound is inclusion in tissue culture media, where mycoplasma contamination can pose serious problems in industrial applications of cell culture. […] Such concentrations can be determined according to standard methods known in the art."}, "[10]": {"test_system": "P. aeruginosa H187", "type": "cell-based, Pseudomonas aeruginosa", "procedure,_shortened": "as §4"}, "[11]": {"test_system": "E. faecalis", "type": "cell-based, Enterococcus faecalis", "procedure,_shortened": "as §1"}, "[12]": {"test_system": "C. xeroses", "type": "cell-based, Corynebacterium xerosis", "procedure,_shortened": "(§5)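 Growth inhibition was scored after overnight culture at 37 °C in LB with peptide serial dilutions (inoculum 5×10^5 CFU/mL); MICs were the lowest inhibitory concentrations. Test strains were E. coli UB1005 (wild type), C. xerosis (environmental), and C. albicans and S. epidermidis (clinical isolates).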"}, "[13]": {"test_system": "S. epidermidis", "type": "cell-based, Staphylococcus epidermidis", "procedure,_shortened": "as §5"}, "[14]": {"test_system": "C. Albicans", "type": "cell-based, Candida albicans", "procedure,_shortened": "as §5"}, "[15]": {"test_system": "S. typhinurium C610", "type": "cell-based, Salmonella typhinurium", "procedure,_shortened": "as §1"}, "[16]": {"test_system": "S. typhinurium C587", "type": "cell-based, Salmonella typhinurium", "procedure,_shortened": "as §1"}, "[17]": {"test_system": "S. aureus K147", "type": "cell-based, Staphylococcus aureus", "procedure,_shortened": "(§6)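 MIC read-out, μg/ml, lowest peptide concentration with no growth after overnight incubation at 37 °C in LB liquid broth. Inoculum 5×10^5 CFU/mL from overnight cultures. Therapeutic index = concentration giving complete blood-cell lysis at 4 h divided by MIC.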"}, "[18]": {"test_system": "S. aureus SAP0017", "type": "cell-based, Staphylococcus aureus", "procedure,_shortened": "as §6"}}}
{"compound": "CC(C)C[C@@H]1NC(=O)[C@H](CCCCN)NC(=O)[C@H](C(C)C)NC(=O)[C@@H]2CCCN2C(=O)[C@@H](Cc2ccc(O)cc2)NC(=O)[C@H](CC(C)C)NC(=O)[C@H](CCCCN)NC(=O)[C@H](C(C)C)NC(=O)[C@H](CCCCN)NC(=O)[C@H](CC(C)C)NC(=O)[C@@H]2CCCN2C(=O)[C@@H](Cc2ccc(O)cc2)NC(=O)[C@H](C(C)C)NC(=O)[C@H](CCCCN)NC1=O", "note": "[GS14]", "values": [{"measurement": "IC50", "setting": "[1]", "result": 3000, "unit": "nM"}, {"measurement": "Minimum Inhibitory Concentration (activity)", "setting": "[2]; H188", "result": ">200", "unit": "µg/mL"}, {"measurement": "Antibiotic activity (Table 11, ring analogs)", "setting": "[2]; P. aeruginosa H188, unit from Table 10", "result": 400, "unit": "μg/ml"}, {"measurement": "Minimum Inhibitory Concentration (activity)", "setting": "[3]", "result": ">200", "unit": "µg/mL"}, {"measurement": "Antibiotic activity (Table 11, ring analogs)", "setting": "[4]", "result": 400, "unit": "μg/ml"}, {"measurement": "Antibiotic activity (Table 11, ring analogs)", "setting": "[5]", "result": 190, "unit": "μg/ml"}, {"measurement": "Minimum Inhibitory Concentration (activity)", "setting": "[6]; DC2", "result": ">200", "unit": "µg/mL"}, {"measurement": "Antibiotic activity (Table 11, ring analogs)", "setting": "[6]; E. coli DC2, unit from Table 10", "result": 190, "unit": "μg/ml"}, {"measurement": "Antibiotic activity (Table 11, ring analogs)", "setting": "[7]; E. coli UB1005, unit from Table 10", "result": 400, "unit": "μg/ml"}, {"measurement": "Minimum Inhibitory Concentration (activity)", "setting": "[7]; UB1005", "result": ">200", "unit": "µg/mL"}, {"measurement": "MIC against four of the gram positive microorganisms tested", "setting": "[8]", "result": "> 200", "unit": "µg/mL"}, {"measurement": "MIC", "setting": "[9]", "result": "less than 30 μg/ml"}, {"measurement": "Minimum Inhibitory Concentration (activity)", "setting": "[10]; H187", "result": ">200", "unit": "µg/mL"}, {"measurement": "Antibiotic activity (Table 11, ring analogs)", "setting": "[10]; P. aeruginosa H187, unit from Table 10", "result": 400, "unit": "μg/ml"}, {"measurement": "Minimum Inhibitory Concentration (activity)", "setting": "[11]", "result": 1.5, "unit": "µg/mL"}, {"measurement": "Minimum Inhibitory Concentration (activity)", "setting": "[12]", "result": 9, "unit": "µg/mL"}, {"measurement": "Minimum Inhibitory Concentration (activity)", "setting": "[13]", "result": 200, "unit": "µg/mL"}, {"measurement": "Minimum Inhibitory Concentration (activity)", "setting": "[14]", "result": 150, "unit": "µg/mL"}, {"measurement": "Minimum Inhibitory Concentration (activity)", "setting": "[15]", "result": ">200", "unit": "µg/mL"}, {"measurement": "Minimum Inhibitory Concentration (activity)", "setting": "[16]", "result": ">200", "unit": "µg/mL"}, {"measurement": "Minimum Inhibitory Concentration (activity)", "setting": "[17]", "result": ">200", "unit": "µg/mL"}, {"measurement": "Minimum Inhibitory Concentration (activity)", "setting": "[18]", "result": ">200", "unit": "µg/mL"}]}
